Measured values as given in patent US20150191469A1, “COMPOUNDS AND METHODS FOR TREATING HIV” (priority 2012, published 2015).

Tested on: HIV
Assay: MT4 assay: antiviral HIV activity (cell protection, cell titer glo readout at 96 hours)
Assay type: cell-based
Settings: Human immunodeficiency virus 1, MT4, 96 h, MT4 cells, cell titer glo readout at 96 hours, 10 point dose response; read-out: HIV MT4 Assay IC50
In short: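 MT-4 cells infected with HIV, with inhibition readout by CellTiter-Glo luminescence at 96 h relative to no-compound control. Cytotoxicity measured in parallel under the same conditions. IC50 from a 10-point, 3-4-fold dilution series spanning >1000-fold, fitted with a four-parameter logistic equation.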

IC50 [nM] | Structure (SMILES)
354 | Cc1nc2c(cc(C(=O)N3CCN(C)CC3)n2C)c(-c2cc(F)c3c(c2C)CCCO3)c1[C@H](OC(C)(C)C)C(=O)O [Example 173]
3.6 | Cc1nc2c(cc(C(=O)N3CCc4ccccc4C3)n2C)c(-c2cc(F)c3c(c2C)CCCO3)c1[C@H](OC(C)(C)C)C(=O)O [Example 174]
4.8 | Cc1nc2c(cc(C(=O)N3CCC(c4ccc(C#N)cc4)CC3)n2C)c(-c2cc(F)c3c(c2C)CCCO3)c1[C@H](OC(C)(C)C)C(=O)O [Example 175]
25.6 | Cc1nc2c(cc(C(=O)N3CCC(C)CC3)n2C)c(-c2cc(F)c3c(c2C)CCCO3)c1[C@H](OC(C)(C)C)C(=O)O [Example 176]
4.7 | Cc1nc2c(cc(C(=O)N3CCC(c4cccc(C#N)c4)CC3)n2C)c(-c2cc(F)c3c(c2C)CCCO3)c1[C@H](OC(C)(C)C)C(=O)O [Example 177]
1920 | Cc1nc2c(cc(C(=O)N3CCN(S(C)(=O)=O)CC3)n2C)c(-c2cc(F)c3c(c2C)CCCO3)c1[C@H](OC(C)(C)C)C(=O)O [Example 180]
42 | Cc1nc2c(cc(C(=O)N3CCC(F)(F)CC3)n2C)c(-c2cc(F)c3c(c2C)CCCO3)c1[C@H](OC(C)(C)C)C(=O)O [Example 181]
131 | Cc1nc2c(cc(C(=O)N3CCN4CCCC4C3)n2C)c(-c2cc(F)c3c(c2C)CCCO3)c1[C@H](OC(C)(C)C)C(=O)O (some centres unmarked) [Example 182]
33.9 | Cc1nc2c(cc(C(=O)N3CCc4ccccc43)n2C)c(-c2cc(F)c3c(c2C)CCCO3)c1[C@H](OC(C)(C)C)C(=O)O [Example 183]
42 | Cc1nc2c(cc(C(=O)N3Cc4ccccc4C3)n2C)c(-c2cc(F)c3c(c2C)CCCO3)c1[C@H](OC(C)(C)C)C(=O)O [Example 184]
26.5 | Cc1nc2c(cc(-c3ccn(C4CN(C5CCOCC5)C4)n3)n2C)c(-c2cc(F)c3c(c2C)CCCO3)c1[C@H](OC(C)(C)C)C(=O)O [Example 187]
1190 | Cc1nc2c(cc(C(=O)N3CC4CN(C5COC5)CC4C3)n2C)c(-c2cc(F)c3c(c2C)CCCO3)c1[C@H](OC(C)(C)C)C(=O)O (some centres unmarked) [Example 189]
12.3 | Cc1nc2c(cc(C(=O)N3CCC4(CCCC4)CC3)n2C)c(-c2cc(F)c3c(c2C)CCCO3)c1[C@H](OC(C)(C)C)C(=O)O [Example 193]
1.5 | Cc1nc2c(cc(C(=O)N3CC(c4ccccc4)C3)n2C)c(-c2cc(F)c3c(c2C)CCCO3)c1[C@H](OC(C)(C)C)C(=O)O [Example 194]
12.3 | Cc1nc2c(cc(C(=O)N3CCN(C(C)c4ccccc4)CC3)n2C)c(-c2cc(F)c3c(c2C)CCCO3)c1[C@H](OC(C)(C)C)C(=O)O (some centres unmarked) [Example 196]
6810 | CC(=O)N1CCCN(C(=O)c2cc3c(-c4cc(F)c5c(c4C)CCCO5)c([C@H](OC(C)(C)C)C(=O)O)c(C)nc3n2C)CC1 [Example 197]
27.6 | Cc1nc2c(cc(C(=O)N3CCN(c4ncccn4)CC3)n2C)c(-c2cc(F)c3c(c2C)CCCO3)c1[C@H](OC(C)(C)C)C(=O)O [Example 199]
65.7 | Cc1nc2c(cc(C(=O)N3CCN(C(=O)C4CCCCC4)CC3)n2C)c(-c2cc(F)c3c(c2C)CCCO3)c1[C@H](OC(C)(C)C)C(=O)O [Example 201]
6040 | Cc1nc2c(cc(C(=O)N3CCN(CC(=O)N4CCCC4)CC3)n2C)c(-c2cc(F)c3c(c2C)CCCO3)c1[C@H](OC(C)(C)C)C(=O)O [Example 203]
11400 | Cc1nc2c(cc(C(=O)N3CCN(CC(=O)N4CCOCC4)CC3)n2C)c(-c2cc(F)c3c(c2C)CCCO3)c1[C@H](OC(C)(C)C)C(=O)O [Example 204]
373 | Cc1nc2c(cc(C(=O)N3CCOC(C)(C(=O)NC4CCCC4)C3)n2C)c(-c2cc(F)c3c(c2C)CCCO3)c1[C@H](OC(C)(C)C)C(=O)O (some centres unmarked) [Example 205]
126 | Cc1nc2c(cc(C(=O)N3CCCN(c4nccs4)CC3)n2C)c(-c2cc(F)c3c(c2C)CCCO3)c1[C@H](OC(C)(C)C)C(=O)O [Example 206]
311 | CCN(CC)C(=O)C1CCCN(C(=O)c2cc3c(-c4cc(F)c5c(c4C)CCCO5)c([C@H](OC(C)(C)C)C(=O)O)c(C)nc3n2C)C1 (some centres unmarked) [Example 207]
39.6 | Cc1nc2c(cc(C(=O)N3CCN(c4nccs4)CC3)n2C)c(-c2cc(F)c3c(c2C)CCCO3)c1[C@H](OC(C)(C)C)C(=O)O [Example 208]

Further lines, the compound ahead of its results:

Structure (SMILES) | IC50 [nM]
Cc1nc2c(cc(C(=O)N3CCC(c4ccc(C(N)=O)cc4)CC3)n2C)c(-c2cc(F)c3c(c2C)CCCO3)c1[C@H](OC(C)(C)C)C(=O)O [Example 178] | 176
Cc1nc2c(cc(C(=O)N3CCC[C@H]3C(=O)N(C)c3ccc4c(cnn4C)c3)n2C)c(-c2cc(F)c3c(c2C)CCCO3)c1[C@H](OC(C)(C)C)C(=O)O [Example 179] | 847
Cc1nc2c(cc(-c3ccn(C4CN(C(=O)OC(C)(C)C)C4)n3)n2C)c(-c2cc(F)c3c(c2C)CCCO3)c1[C@H](OC(C)(C)C)C(=O)O [Example 185] | 32.2
Cc1nc2c(cc(-c3cnn(CC4CN(C(=O)OC(C)(C)C)C4)c3)n2C)c(-c2cc(F)c3c(c2C)CCCO3)c1[C@H](OC(C)(C)C)C(=O)O [Example 186] | 41.1
Cc1nc2c(cc(C(=O)N3C[C@@H]4CC[C@H]3CN(C3COC3)C4)n2C)c(-c2cc(F)c3c(c2C)CCCO3)c1[C@H](OC(C)(C)C)C(=O)O [Example 188] | 86.7
Cc1nc2c(cc(C(=O)N[C@H](C)c3ccccc3)n2C)c(-c2cc(F)c3c(c2C)CCCO3)c1[C@H](OC(C)(C)C)C(=O)O [Example 190] | 14.1
Cc1nc2c(cc(C(=O)N3CCC(c4c[nH]c5ccccc45)CC3)n2C)c(-c2cc(F)c3c(c2C)CCCO3)c1[C@H](OC(C)(C)C)C(=O)O [Example 191] | 4.9
Cc1nc2c(cc(C(=O)N(C)Cc3ccccc3)n2C)c(-c2cc(F)c3c(c2C)CCCO3)c1[C@H](OC(C)(C)C)C(=O)O [Example 192] | 16.6
Cc1nc2c(cc(C(=O)NC(C)(C)c3ccccc3)n2C)c(-c2cc(F)c3c(c2C)CCCO3)c1[C@H](OC(C)(C)C)C(=O)O [Example 195] | 26
Cc1nc2c(cc(C(=O)N3CCN(C(=O)OCc4ccccc4)CC3)n2C)c(-c2cc(F)c3c(c2C)CCCO3)c1[C@H](OC(C)(C)C)C(=O)O [Example 198] | 26.3
Cc1nc2c(cc(C(=O)N3CCC4(CC3)CC(Cc3cccnc3)C(=O)O4)n2C)c(-c2cc(F)c3c(c2C)CCCO3)c1[C@H](OC(C)(C)C)C(=O)O (some centres unmarked) [Example 200] | 8050
Cc1nc2c(cc(C(=O)N(CCC(C)C)CCC(C)C)n2C)c(-c2cc(F)c3c(c2C)CCCO3)c1[C@H](OC(C)(C)C)C(=O)O [Example 202] | 92.8
Cc1nc2c(cc(C(=O)NCc3ccccc3)n2C)c(-c2cc(F)c3c(c2C)CCCO3)c1[C@H](OC(C)(C)C)C(=O)O [Example 209] | 9.4
Cc1nc2c(cc(C(=O)N[C@@H](C)c3ccccc3)n2C)c(-c2cc(F)c3c(c2C)CCCO3)c1[C@H](OC(C)(C)C)C(=O)O [Example 210] | 5
Cc1cnc(CNC(=O)c2cc3c(-c4cc(F)c5c(c4C)CCCO5)c([C@H](OC(C)(C)C)C(=O)O)c(C)nc3n2C)cn1 [Example 211] | 121
Cc1nc2c(cc(C(=O)NCCc3ccccc3)n2C)c(-c2cc(F)c3c(c2C)CCCO3)c1[C@H](OC(C)(C)C)C(=O)O [Example 212] | 28.8
Cc1nc2c(cc(C(=O)NCCOc3ccccc3)n2C)c(-c2cc(F)c3c(c2C)CCCO3)c1[C@H](OC(C)(C)C)C(=O)O [Example 213] | 3.9
